Source: US20100144855A1, “APPLICATION OF SEDOISOPROSAN FOR PREPARATION OF MEDICINE FOR TREATMENT OF HUMAN HBeAg POSITIVE CHRONIC HEPATITIS B” (priority 2008, published 2010)

Experiment: clinical trial, safety in HBeAg positive chronic hepatitis B patients
Assay type: in vivo, human
Conditions: for cases with adverse events: 16 cases
From the text: The clinical trial protocol was designed according to the randomized, double-blind and controlled principle. The clinical efficacy and the safety of sedoisoprosan for therapy on human HBeAg positive chronic hepatitis B is defined according to the changes of vivo HBV-DNA level, ALT level, vital signs, blood routine indexes, blood biochemical indexes and thyroid function indexes before and after administration and the incidence of adverse events.
Patients enrolled in the clinical trials were randomly divided into four groups, i.e. negative control group (800 mg mannite), low dose group (200 mg sedoisoprosan with 600 mg mannite), median dose group (400 mg sedoisoprosan with 400 mg mannite) and high dose group (800 mg sedoisoprosan) respectively. Each patient was assigned with a CRF No. which was randomly generated by computer.
Baseline assessment was performed on the day of the first administration, which included medical examination, hematological examination, blood biochemical examination, thyroid function examination, ALT examination and quantitative detection of HBV-DNA. The medical examination included the examination of stature, avoirdupois, blood pressure and pulse rate. The hematological examination included the leucocyte, neutrophil, erythrocyte, platelet and haemoglobin counts, and the prothrombin time. The blood biochemical examination included the examination of serum potassium, sodium, GOT, total bilirubin, AKP, total protein, albumin, total cholesterol, triglyceride, urea nitrogen, creatinine and glucose.
The patients were followed up at the 1st, 2nd, 4th, 8th and 12th week of the treatment. The blood biochemical examination and the quantitative detection of HBV-DNA was performed at the 2nd, 4th, 8th and 12th week of the treatment, and the adverse events were recorded at the same time. The thyroid function examination was performed at the 12th week of the treatment.
The safety indexes included vital signs, clinical laboratory parameters, adverse events, important adverse events, serious adverse events and the early termination cases. The safety analysis should be performed on patients who have received at least once administration and were evaluated after the administration.
The detection of vital signs and laboratory parameters and the recording for adverse events was performed at baseline and at the 1st, 2nd, 4th, 8th and 12th week of the treatment. The vital signs and laboratory parameters were evaluated by the changes thereof before and after the treatment. The incidence of adverse events was figured by the proportion of patients having adverse events during the treatment, and the evaluation of adverse events included the kinds, grades and the relationship to the drugs. The adverse events were recorded by descriptive statistics, and comparison of the incidence thereof between the four groups was performed by Fisher probabilistic test.

[1] = high dose group, 800 mg, the 1st week
[2] = high dose group, 800 mg, the 2nd week
[3] = high dose group, 800 mg, the 4th week
[4] = high dose group, 800 mg, the 8th week
[5] = high dose group, 800 mg, the 12th week
[6] = low dose group, 200 mg, the 1st week
[7] = low dose group, 200 mg, the 2nd week
[8] = low dose group, 200 mg, the 4th week
[9] = low dose group, 200 mg, the 8th week
[10] = low dose group, 200 mg, the 12th week
[11] = median dose group, 400 mg, the 1st week
[12] = median dose group, 400 mg, the 2nd week
[13] = median dose group, 400 mg, the 4th week
[14] = median dose group, 400 mg, the 8th week
[15] = median dose group, 400 mg, the 12th week
[16] = patient CRF 3, high dose group (800 mg)
[17] = patient CRF 7, low dose group (200 mg)
[18] = patient CRF 10, low dose group (200 mg)
[19] = patient CRF 14, low dose group (200 mg)
[20] = patient CRF 15, median dose group (400 mg)
[21] = patient CRF 17, low dose group (200 mg)
[22] = patient CRF 19, high dose group (800 mg)
[23] = patient CRF 20, median dose group (400 mg)
[24] = patient CRF20, median dose group, after 8 weeks' treatment
[25] = patient CRF 32, median dose group (400 mg)
[26] = patient CRF 60, median dose group (400 mg)

CC1(C)OC2C3COC(CO)(O3)C(O)C2O1 (centres unmarked) [sedoisoprosan, isopropylidene sedoheptulosan]
safety of the highest dose (vital signs, blood routine and blood biochemical indexes) (800 mg): safe | changes in total bilirubin levels before and after the treatment (12 weeks' treatment): significant changes in total bilirubin levels before and after the treatment, but such changes were still within the normal range | changes in vital signs, blood routine indexes and blood biochemical indexes, excluding the total bilirubin levels, before and after the treatment (12 weeks' treatment): No significant changes | important adverse events related to the study drug and needing treatment (CRF16, CRF19 and CRF20): 3 cases | central nervous system abnormalities among adverse events (all groups): No central nervous system abnormalities were found | incidence of adverse events (clinical trials, 200-800 mg): low | patients who quitted the clinical trials for adverse events (high dose group): No patients | cases with adverse events (high dose group (800 mg)): two | Avoirdupois [1]: 61.34 ± 9.96 kg | Diastolic Pressure [1]: 75.31 ± 7.26 mmHg | Pulse rate [1]: 76.00 ± 5.81 times/min | Respiratory frequency [1]: 18.00 ± 1.86 times/min | Systolic Pressure [1]: 115.56 ± 13.17 mmHg | Avoirdupois [2]: 61.41 ± 9.89 kg | Diastolic Pressure [2]: 75.31 ± 6.14 mmHg | Pulse rate [2]: 75.81 ± 5.27 times/min | Respiratory frequency [2]: 18.38 ± 1.78 times/min | Systolic Pressure [2]: 112.81 ± 12.55 mmHg | Avoirdupois [3]: 61.53 ± 9.81 kg | Diastolic Pressure [3]: 75.44 ± 6.03 mmHg | Pulse rate [3]: 76.38 ± 5.95 times/min | Respiratory frequency [3]: 17.94 ± 1.84 times/min | Systolic Pressure [3]: 112.69 ± 11.69 mmHg | Avoirdupois [4]: 62.06 ± 9.20 kg | Diastolic Pressure [4]: 77.56 ± 5.05 mmHg | Pulse rate [4]: 75.75 ± 5.27 times/min | Respiratory frequency [4]: 18.75 ± 1.24 times/min | Systolic Pressure [4]: 115.19 ± 10.91 mmHg | Avoirdupois [5]: 62.67 ± 9.45 kg | Diastolic Pressure [5]: 76.73 ± 5.16 mmHg | Pulse rate [5]: 75.73 ± 4.85 times/min | Respiratory frequency [5]: 19.13 ± 1.13 times/min | Systolic Pressure [5]: 115.20 ± 11.55 mmHg | cases with adverse events (low dose group (200 mg)): four | Avoirdupois [6]: 61.72 ± 10.47 kg | Diastolic Pressure [6]: 72.38 ± 5.14 mmHg | Pulse rate [6]: 76.06 ± 5.95 times/min | Respiratory frequency [6]: 18.63 ± 1.31 times/min | Systolic Pressure [6]: 116.63 ± 8.79 mmHg | Avoirdupois [7]: 61.59 ± 10.80 kg | Diastolic Pressure [7]: 73.38 ± 6.01 mmHg | Pulse rate [7]: 74.13 ± 4.70 times/min | Respiratory frequency [7]: 18.75 ± 1.57 times/min | Systolic Pressure [7]: 116.00 ± 10.67 mmHg | Avoirdupois [8]: 61.57 ± 10.72 kg | Diastolic Pressure [8]: 74.87 ± 6.55 mmHg | Pulse rate [8]: 75.13 ± 4.50 times/min | Respiratory frequency [8]: 18.60 ± 1.30 times/min | Systolic Pressure [8]: 113.93 ± 9.95 mmHg | Avoirdupois [9]: 62.86 ± 11.14 kg | Diastolic Pressure [9]: 73.29 ± 5.82 mmHg | Pulse rate [9]: 73.57 ± 5.65 times/min | Respiratory frequency [9]: 18.64 ± 1.45 times/min | Systolic Pressure [9]: 115.71 ± 9.75 mmHg | Avoirdupois [10]: 63.58 ± 12.09 kg | Diastolic Pressure [10]: 74.54 ± 4.94 mmHg | Pulse rate [10]: 71.54 ± 4.16 times/min | Respiratory frequency [10]: 19.15 ± 1.28 times/min | Systolic Pressure [10]: 115.85 ± 10.79 mmHg | cases with adverse events (median dose group (400 mg)): four | Avoirdupois [11]: 62.67 ± 12.11 kg | Diastolic Pressure [11]: 71.53 ± 7.53 mmHg | Pulse rate [11]: 77.60 ± 3.83 times/min | Respiratory frequency [11]: 19.13 ± 3.76 times/min | Systolic Pressure [11]: 114.33 ± 11.00 mmHg | Avoirdupois [12]: 62.30 ± 12.09 kg | Diastolic Pressure [12]: 71.73 ± 6.24 mmHg | Pulse rate [12]: 75.47 ± 5.36 times/min | Respiratory frequency [12]: 18.53 ± 3.54 times/min | Systolic Pressure [12]: 114.67 ± 9.85 mmHg | Avoirdupois [13]: 61.73 ± 9.86 kg | Diastolic Pressure [13]: 73.13 ± 5.69 mmHg | Pulse rate [13]: 76.40 ± 3.81 times/min | Respiratory frequency [13]: 18.40 ± 4.03 times/min | Systolic Pressure [13]: 115.80 ± 10.25 mmHg | Avoirdupois [14]: 62.70 ± 11.76 kg | Diastolic Pressure [14]: 73.73 ± 4.51 mmHg | Pulse rate [14]: 75.40 ± 3.25 times/min | Respiratory frequency [14]: 19.27 ± 2.34 times/min | Systolic Pressure [14]: 110.87 ± 7.70 mmHg | Avoirdupois [15]: 59.88 ± 8.18 kg | Diastolic Pressure [15]: 74.77 ± 5.15 mmHg | Pulse rate [15]: 78.00 ± 4.53 times/min | Respiratory frequency [15]: 19.31 ± 2.66 times/min | Systolic Pressure [15]: 115.69 ± 9.67 mmHg | reason for early termination (one patient, low dose group, after 6 weeks' treatment): progressive increasing ALT level | Adverse event Liver Dysfunction: Outcome [16]: Remission Without Sequela | Adverse event Liver Dysfunction: Relation to the study drug [16]: Unrelated | Adverse event Liver Dysfunction: Severity [16]: Light | Adverse event Urinary Tract Infection: Outcome [17]: Remission Without Sequela | Adverse event Urinary Tract Infection: Relation to the study drug [17]: Unrelated | Adverse event Urinary Tract Infection: Severity [17]: Light | Adverse event Progressive Increase in ALT Level: Outcome [18]: Reexamination of Liver Function After A Week | Adverse event Progressive Increase in ALT Level: Relation to the study drug [18]: Maybe Unrelated | Adverse event Progressive Increase in ALT Level: Severity [18]: Middle | Adverse event Alopecia: Outcome [19]: No Change | Adverse event Alopecia: Relation to the study drug [19]: Maybe Related | Adverse event Alopecia: Severity [19]: Light | Adverse event Gingival Bleeding: Outcome [19]: Remission Without Sequela | Adverse event Gingival Bleeding: Relation to the study drug [19]: Maybe Unrelated | Adverse event Gingival Bleeding: Severity [19]: Light | Adverse event Liver Dysfunction: Outcome [19]: Remission Without Sequela | Adverse event Liver Dysfunction: Relation to the study drug [19]: Maybe Unrelated | Adverse event Liver Dysfunction: Severity [19]: Light | Adverse event Pharyngoxerosis: Outcome [19]: Remission Without Sequela | Adverse event Pharyngoxerosis: Relation to the study drug [19]: Unrelated | Adverse event Pharyngoxerosis: Severity [19]: Light | Adverse event Alopecia: Outcome [20]: No Change | Adverse event Alopecia: Relation to the study drug [20]: Maybe Related | Adverse event Alopecia: Severity [20]: Light | Adverse event Emesis: Outcome [20]: Remission Without Sequela | Adverse event Emesis: Relation to the study drug [20]: Maybe Unrelated | Adverse event Emesis: Severity [20]: Light | Adverse event Gingival Bleeding: Outcome [20]: Remission Without Sequela | Adverse event Gingival Bleeding: Relation to the study drug [20]: Maybe Unrelated | Adverse event Gingival Bleeding: Severity [20]: Light | Adverse event Increase in ALT Level: Outcome [20]: Remission Without Sequela | Adverse event Increase in ALT Level: Relation to the study drug [20]: Maybe Unrelated | Adverse event Increase in ALT Level: Severity [20]: Light | Adverse event Alopecia: Outcome [21]: No Change | Adverse event Alopecia: Relation to the study drug [21]: Maybe Related | Adverse event Alopecia: Severity [21]: Light | Adverse event ALT 74 U/L, TBil 133.1: Outcome [22]: Remission Without Sequela | Adverse event ALT 74 U/L, TBil 133.1: Relation to the study drug [22]: Maybe Related | Adverse event ALT 74 U/L, TBil 133.1: Severity [22]: Middle | Adverse event Aggravated Muscle Ache: Outcome [22]: Remission Without Sequela | Adverse event Aggravated Muscle Ache: Relation to the study drug [22]: Maybe Related | Adverse event Aggravated Muscle Ache: Severity [22]: Middle | Adverse event Costalgia And Notalgia: Outcome [22]: Remission Without Sequela | Adverse event Costalgia And Notalgia: Relation to the study drug [22]: Maybe Related | Adverse event Costalgia And Notalgia: Severity [22]: Middle | Adverse event Generalized Muscle Ache: Outcome [22]: Remission Without Sequela | Adverse event Generalized Muscle Ache: Relation to the study drug [22]: Maybe Related | Adverse event Generalized Muscle Ache: Severity [22]: Light | Adverse event Acid Regurgitation: Outcome [23]: Remission Without Sequela | Adverse event Acid Regurgitation: Relation to the study drug [23]: Maybe Related | Adverse event Acid Regurgitation: Severity [23]: Light | Adverse event Aggravated Digestive Symptom: Outcome [23]: Remission Without Sequela | Adverse event Aggravated Digestive Symptom: Relation to the study drug [23]: Related | Adverse event Aggravated Digestive Symptom: Severity [23]: Middle | Adverse event Dark Urine: Outcome [23]: Remission Without Sequela | Adverse event Dark Urine: Relation to the study drug [23]: Related | Adverse event Dark Urine: Severity [23]: Middle | Adverse event Epigastric Discomfort: Outcome [23]: Remission Without Sequela | Adverse event Epigastric Discomfort: Relation to the study drug [23]: Related | Adverse event Epigastric Discomfort: Severity [23]: Middle | Adverse event Hypodynamia: Outcome [23]: Remission Without Sequela | Adverse event Hypodynamia: Relation to the study drug [23]: Related | Adverse event Hypodynamia: Severity [23]: Middle | Adverse event Icterus: Outcome [23]: Remission Without Sequela | Adverse event Icterus: Relation to the study drug [23]: Related | Adverse event Icterus: Severity [23]: Middle | ALT level at early termination [24]: 343 U/L | AST level at early termination [24]: 517 U/L | TBil level at early termination [24]: 68.1 µmol/L | Adverse event Toothache And Periodontitis: Outcome [25]: Remission Without Sequela | Adverse event Toothache And Periodontitis: Relation to the study drug [25]: Unrelated | Adverse event Toothache And Periodontitis: Severity [25]: Middle | Adverse event Upper Respiratory Tract Infection: Outcome [26]: Remission Without Sequela | Adverse event Upper Respiratory Tract Infection: Relation to the study drug [26]: Unrelated | Adverse event Upper Respiratory Tract Infection: Severity [26]: Middle
